Patent US20260356804A1, “SODIUM CHANNEL BLOCKING COMPOUNDS, DERIVATIVES THEREOF, AND METHODS OF THEIR USE” (LATIGO BIOTHERAPEUTICS, INC., priority 2022, published 2026)
Where two headings read alike, the source gives them in different places.

Biological target: T1, human Nav1.8/b3 (Homo sapiens, UniProt Q9Y5Y9)
T1 construct: expressed in transfected cells; host or cells: CHO
Assay: Compound Profiling Human NaV1.8/β3 Cell Line—SyncroPatch384PE Assay (automated patch clamp, stably transfected CHO cells)
Type: cell-based
Details: Nav1.8/b3 CHO cells

[1] = P1 (IC50, resting state block), P1 measurement, resting state block, holding potential −120 mV, third set of compounds
[2] = P2 (IC50, inactivated state block), P2 measurement, inactivated state block, inactivation step −35 mV 10 sec, third set of compounds
[3] = P1 (IC50, resting state block), P1 measurement, resting state block, holding potential −120 mV, fourth set of compounds
[4] = P2 (IC50, inactivated state block), P2 measurement, inactivated state block, inactivation step −35 mV 10 sec, fourth set of compounds
[5] = P1 (IC50, resting state block), P1 measurement, resting state block, holding potential −120 mV, second set of compounds
[6] = P2 (IC50, inactivated state block), P2 measurement, inactivated state block, inactivation step −35 mV 10 sec, second set of compounds

T1 sequence (Q9Y5Y9 whole entry): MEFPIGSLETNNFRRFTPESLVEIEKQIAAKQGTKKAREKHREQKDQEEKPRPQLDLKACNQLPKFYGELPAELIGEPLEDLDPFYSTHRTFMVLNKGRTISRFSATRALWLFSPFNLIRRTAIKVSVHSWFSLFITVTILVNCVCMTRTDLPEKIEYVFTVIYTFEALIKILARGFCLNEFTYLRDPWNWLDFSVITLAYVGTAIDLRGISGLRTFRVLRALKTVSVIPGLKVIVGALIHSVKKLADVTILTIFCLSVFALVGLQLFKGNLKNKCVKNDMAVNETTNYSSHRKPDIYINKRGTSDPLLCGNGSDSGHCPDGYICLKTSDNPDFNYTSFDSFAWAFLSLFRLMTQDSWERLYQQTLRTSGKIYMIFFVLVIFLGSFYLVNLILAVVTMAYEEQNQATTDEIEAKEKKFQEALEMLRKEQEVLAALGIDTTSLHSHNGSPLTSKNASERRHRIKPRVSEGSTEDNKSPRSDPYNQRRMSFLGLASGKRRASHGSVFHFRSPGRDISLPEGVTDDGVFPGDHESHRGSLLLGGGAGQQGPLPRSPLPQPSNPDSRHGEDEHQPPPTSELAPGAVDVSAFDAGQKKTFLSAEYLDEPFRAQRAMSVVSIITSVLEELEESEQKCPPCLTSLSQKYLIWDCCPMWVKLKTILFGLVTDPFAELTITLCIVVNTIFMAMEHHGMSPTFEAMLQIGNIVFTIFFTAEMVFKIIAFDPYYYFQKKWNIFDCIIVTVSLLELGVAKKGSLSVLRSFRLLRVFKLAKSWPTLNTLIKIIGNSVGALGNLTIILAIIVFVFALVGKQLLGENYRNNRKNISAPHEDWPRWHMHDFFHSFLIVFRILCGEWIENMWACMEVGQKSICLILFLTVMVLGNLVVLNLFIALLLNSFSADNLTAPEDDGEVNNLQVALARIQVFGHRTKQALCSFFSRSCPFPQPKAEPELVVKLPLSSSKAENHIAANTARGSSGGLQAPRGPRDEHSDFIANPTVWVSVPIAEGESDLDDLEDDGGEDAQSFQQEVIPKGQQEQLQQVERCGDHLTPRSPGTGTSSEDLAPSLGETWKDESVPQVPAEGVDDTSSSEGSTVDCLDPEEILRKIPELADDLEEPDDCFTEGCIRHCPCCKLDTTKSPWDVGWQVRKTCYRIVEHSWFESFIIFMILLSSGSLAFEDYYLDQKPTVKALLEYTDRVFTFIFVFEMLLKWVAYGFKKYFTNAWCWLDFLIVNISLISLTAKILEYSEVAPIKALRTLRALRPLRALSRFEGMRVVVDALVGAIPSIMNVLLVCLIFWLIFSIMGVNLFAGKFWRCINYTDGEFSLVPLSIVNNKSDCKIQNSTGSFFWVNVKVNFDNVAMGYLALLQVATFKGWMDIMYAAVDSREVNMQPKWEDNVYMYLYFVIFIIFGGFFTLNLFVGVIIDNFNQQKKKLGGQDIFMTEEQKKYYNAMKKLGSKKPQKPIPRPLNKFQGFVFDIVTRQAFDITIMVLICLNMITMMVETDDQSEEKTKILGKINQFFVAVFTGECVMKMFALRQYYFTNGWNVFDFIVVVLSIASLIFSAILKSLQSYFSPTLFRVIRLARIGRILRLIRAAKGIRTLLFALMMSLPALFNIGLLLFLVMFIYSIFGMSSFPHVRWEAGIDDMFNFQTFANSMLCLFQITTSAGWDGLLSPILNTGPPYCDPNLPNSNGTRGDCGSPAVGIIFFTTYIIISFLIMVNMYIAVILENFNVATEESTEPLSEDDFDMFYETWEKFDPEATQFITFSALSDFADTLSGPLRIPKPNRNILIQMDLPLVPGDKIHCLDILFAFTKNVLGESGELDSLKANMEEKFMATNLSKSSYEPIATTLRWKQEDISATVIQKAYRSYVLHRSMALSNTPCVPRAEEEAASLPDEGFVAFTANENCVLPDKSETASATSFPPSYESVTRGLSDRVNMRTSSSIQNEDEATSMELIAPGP
T1 sequence (Q9NY72 23-215 partner): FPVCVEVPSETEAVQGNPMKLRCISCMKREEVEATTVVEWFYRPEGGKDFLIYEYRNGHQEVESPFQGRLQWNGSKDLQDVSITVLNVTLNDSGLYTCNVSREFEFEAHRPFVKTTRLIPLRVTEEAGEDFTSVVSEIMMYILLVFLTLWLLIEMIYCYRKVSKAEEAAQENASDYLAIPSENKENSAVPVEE

Row | IC50 [3] | IC50 [4] | IC50 [5] | IC50 [6] | SMILES | also measured
1 | – | – | 5 to 50 nM | 5 to 50 nM | Cc1nc(F)ccc1Oc1cc(C(F)(F)F)ccc1C(=O)Nc1cccc([S@@](C)(=O)=NC(=O)CN)c1 [Example 14B, (R)-2-((6-fluoro-2-methylpyridin-3-yl)oxy)-N-(3-(N-glycyl-S-methylsulfonimidoyl)phenyl)-4-(trifluoromethyl)benzamide] | –
2 | < 5 nM | < 5 nM | – | – | Cc1nc(F)ccc1Oc1ncc(C(F)(F)F)c(C)c1C(=O)Nc1cccc([S@@](C)(=O)=NC(=O)[C@H]2CCCO2)c1 [Example 14D, 2-((6-fluoro-2-methylpyridin-3-yl)oxy)-4-methyl-N-(3-((R)—S-methyl-N—((R)-tetrahydrofuran-2-carbonyl)sulfonimidoyl)phenyl)-5-(trifluoromethyl)nicotinamide] | –
3 | – | – | < 5 nM | < 5 nM | Cc1nc(F)ccc1Oc1ccc(C(F)(F)F)c(F)c1C(=O)Nc1cccc([S@@](C)(=O)=NC(=O)[C@@H](C)N)c1 [Example 15B, N-(3-((R)—N-(D-alanyl)-S-methylsulfonimidoyl)phenyl)-2-fluoro-6-((6-fluoro-2-methylpyridin-3-yl)oxy)-3-(trifluoromethyl)benzamide] | –
4 | < 5 nM | < 5 nM | – | – | Cc1nc(F)ccc1Oc1ncc(C(F)(F)F)c(C)c1C(=O)Nc1cccc([S@@](C)(=O)=NC(=O)[C@H]2CCOC2)c1 [Example 15D, 2-((6-fluoro-2-methylpyridin-3-yl)oxy)-4-methyl-N-(3-((R)—S-methyl-N—((S)-tetrahydrofuran-3-carbonyl)sulfonimidoyl)phenyl)-5-(trifluoromethyl)nicotinamide] | –
5 | – | – | < 5 nM | < 5 nM | Cc1nc(F)ccc1Oc1ccc(C(F)(F)F)c(F)c1C(=O)Nc1cccc([S@@](C)(=O)=NC(=O)CN)c1 [Example 16B, (R)-2-fluoro-6-((6-fluoro-2-methylpyridin-3-yl)oxy)-N-(3-(N-glycyl-S-methylsulfonimidoyl)phenyl)-3-(trifluoromethyl)benzamide] | –
6 | < 5 nM | < 5 nM | – | – | Cc1nc(F)ccc1Oc1ncc(C(F)(F)F)c(C)c1C(=O)Nc1cccc([S@@](C)(=O)=NC(=O)[C@@H](C)O)c1 [Example 16D, 2-((6-fluoro-2-methylpyridin-3-yl)oxy)-N-(3-((R)—N—((R)-2-hydroxypropanoyl)-S-methylsulfonimidoyl)phenyl)-4-methyl-5-(trifluoromethyl)nicotinamide] | –
7 | – | – | < 5 nM | < 5 nM | CNCC(=O)N=[S@](C)(=O)c1cccc(NC(=O)c2c(Oc3ccc(F)nc3C)ccc(C(F)(F)F)c2F)c1 [Example 17B, (R)-2-fluoro-6-((6-fluoro-2-methylpyridin-3-yl)oxy)-N-(3-(S-methyl-N-(methylglycyl)sulfonimidoyl)phenyl)-3-(trifluoromethyl)benzamide] | –
8 | < 5 nM | < 5 nM | – | – | Cc1nc(F)ccc1Oc1ncc(C(F)(F)F)c(C)c1C(=O)Nc1cccc([S@@](C)(=O)=NC(=O)[C@@H]2C[C@@H](O)CN2)c1 [Example 17D, 2-((6-fluoro-2-methylpyridin-3-yl)oxy)-N-(3-((R)—N-((2S,4R)-4-hydroxypyrrolidine-2-carbonyl)-S-methylsulfonimidoyl)phenyl)-4-methyl-5-(trifluoromethyl)nicotinamide] | –
9 | – | – | < 5 nM | < 5 nM | Cc1nc(F)ccc1Oc1ccc(C(F)(F)F)c(F)c1C(=O)Nc1cccc([S@@](C)(=O)=NC(=O)[C@H](C)O)c1 [Example 18B, 2-fluoro-6-((6-fluoro-2-methylpyridin-3-yl)oxy)-N-(3-((R)—N—((S)-2-hydroxypropanoyl)-S-methylsulfonimidoyl)phenyl)-3-(trifluoromethyl)benzamide] | –
10 | < 5 nM | < 5 nM | – | – | Cc1nc(F)ccc1Oc1nnc(C(F)(F)F)c(C)c1C(=O)Nc1cccc([S@@](C)(=O)=NC(=O)[C@H](C)O)c1 [Example 18D, 3-((6-fluoro-2-methylpyridin-3-yl)oxy)-N-(3-((R)—N—((S)-2-hydroxypropanoyl)-S-methylsulfonimidoyl)phenyl)-5-methyl-6-(trifluoromethyl)pyridazine-4-carboxamide] | –

The remaining lines, values behind:

Row | SMILES | IC50 [3] | IC50 [4] | IC50 [5] | IC50 [6] | also measured
11 | Cc1nc(F)ccc1Oc1ncc(C2CC2)c(C)c1C(=O)Nc1cccc([S@](C)(=N)=O)c1 [Example 12C, (R)-5-cyclopropyl-2-((6-fluoro-2-methylpyridin-3-yl)oxy)-4-methyl-N-(3-(S-methylsulfonimidoyl)phenyl)nicotinamide] | – | – | – | – | IC50 [1]: 50 to 100 nM; IC50 [2]: 50 to 100 nM
12 | Cc1nc(F)ccc1Oc1ncc(C(F)(F)F)c(C)c1C(=O)Nc1cccc([S@@](C)(=O)=NC(=O)CO)c1 [Example 12D, (R)-2-((6-fluoro-2-methylpyridin-3-yl)oxy)-N-(3-(N-(2-hydroxyacetyl)-S-methylsulfonimidoyl)phenyl)-4-methyl-5-(trifluoromethyl)nicotinamide] | < 5 nM | < 5 nM | – | – | –
13 | [2H]C([2H])([2H])c1nc(F)ccc1Oc1cc(C(F)(F)F)c(Cl)cc1C(=O)Nc1ccnc([S@](C)(=N)=O)c1 [Example 13A, (R)-5-chloro-2-((6-fluoro-2-(methyl-d3)pyridin-3-yl)oxy)-N-(2-(S-methylsulfonimidoyl)pyridin-4-yl)-4-(trifluoromethyl)benzamide] | – | – | – | – | IC50 (P1 measurement, resting state block, holding potential −120 mV, first set of compounds, read-out: P1 (IC50, resting state block)): < 5 nM; IC50 (P2 measurement, inactivated state block, inactivation step −35 mV 10 sec, first set of compounds, read-out: P2 (IC50, inactivated state block)): < 5 nM
14 | Cc1nc(F)ccc1Oc1cc(C(F)(F)F)ccc1C(=O)Nc1cccc([S@@](C)(=O)=NC(=O)[C@@H](C)O)c1 [Example 13B, 2-((6-fluoro-2-methylpyridin-3-yl)oxy)-N-(3-((R)—N—((R)-2-hydroxypropanoyl)-S-methylsulfonimidoyl)phenyl)-4-(trifluoromethyl)benzamide] | – | – | 5 to 50 nM | 5 to 50 nM | –
15 | Cc1nc(F)ccc1Oc1nnc(C(F)(F)F)c(C)c1C(=O)Nc1cccc(S(N)(=O)=O)c1 [Example 13C, 3-((6-fluoro-2-methylpyridin-3-yl)oxy)-5-methyl-N-(3-sulfamoylphenyl)-6-(trifluoromethyl)pyridazine-4-carboxamide] | – | – | – | – | IC50 [1]: < 5 nM; IC50 [2]: < 5 nM
16 | Cc1nc(F)ccc1Oc1ncc(C(F)(F)F)c(C)c1C(=O)Nc1cccc([S@@](C)(=O)=NC(=O)[C@H](C)O)c1 [Example 13D, 2-((6-fluoro-2-methylpyridin-3-yl)oxy)-N-(3-((R)—N—((S)-2-hydroxypropanoyl)-S-methylsulfonimidoyl)phenyl)-4-methyl-5-(trifluoromethyl)nicotinamide] | < 5 nM | < 5 nM | – | – | –
17 | Cc1nc(F)ccc1Oc1cc(C(F)(F)F)c(Cl)cc1C(=O)Nc1cccc([S@@](C)(=O)=NCCN)c1 [Example 14A, (R)—N-(3-(N-(2-aminoethyl)-S-methylsulfonimidoyl)phenyl)-5-chloro-2-((6-fluoro-2-methylpyridin-3-yl)oxy)-4-(trifluoromethyl)benzamide] | – | – | – | – | IC50 (P1 (IC50, resting state block), P1 measurement, resting state block, holding potential −120 mV, first set of compounds): < 5 nM; IC50 (P2 (IC50, inactivated state block), P2 measurement, inactivated state block, inactivation step −35 mV 10 sec, first set of compounds): < 5 nM
18 | COc1cc(C#N)ccc1Oc1ncc(-c2ccc(C(F)F)cc2)c(C)c1C(=O)Nc1ccnc([S@@](C)(=N)=O)c1 [Example 16C, (S)-2-(4-cyano-2-methoxyphenoxy)-5-(4-(difluoromethyl)phenyl)-4-methyl-N-(2-(S-methylsulfonimidoyl)pyridin-4-yl)nicotinamide] | – | – | – | – | IC50 [1]: > 200 nM; IC50 [2]: > 200 nM
19 | COc1cc(C#N)ccc1Oc1ncc(-c2ccc(C(F)F)cc2)c(C)c1C(=O)Nc1ccnc([S@](C)(=N)=O)c1 [Example 17C, (R)-2-(4-cyano-2-methoxyphenoxy)-5-(4-(difluoromethyl)phenyl)-4-methyl-N-(2-(S-methylsulfonimidoyl)pyridin-4-yl)nicotinamide] | – | – | – | – | IC50 [1]: > 200 nM; IC50 [2]: > 200 nM
